We go through six molecules from patent publication US20230312550A1, “N-(2-(4-CYANOTHIAZOLIDIN-3-YL)-2-OXOETHYL)-QUINOLINE-4-CARBOXAMIDES” (AstraZeneca AB, priority 2020, published 2023).

The target of data set [1] is FAP (Homo sapiens (Human), UniProt Q12884). The experiment in a line: hFAP inhibition assay. The class given is biochemical. Particulars: hFAP […], Ala-Pro-AMC 20 μM; n = 1 or geometric mean n = 2-3. In outline:
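Compounds (10-point, 3-fold dilutions from 50 μM top) were preincubated 15 min at rt in the dark with 0.48 nM hFAP in pH 7.4 Tris/NaCl/Chaps buffer. Reaction was started with substrate (40 μM solution) and ran 30 min at rt. Read by fluorescence (340/460 nm); IC50 from one-site fit.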

For data set [2], the target named is human Fibroblast activation protein alpha (hFAP) (Homo sapiens (Human), UniProt Q12884). The experiment in a line: hFAP inhibition assay (tight binders). Also: hFAP 2.4 pM. It is filed as biochemical. The settings on record: Ala-Pro-AMC 20 μM, n = 1 or geometric mean n = 2-6. As to the method: The plates were read on a PHERAstar® reader with excitation 340 nm and emission 460 nm. Data were analyzed in Genedata Screener®. IC50 values were determined by plotting % inhibition versus log compound concentration and using a one site dose response model.
Sequence of human Fibroblast activation protein alpha (hFAP) (Q12884 38-760): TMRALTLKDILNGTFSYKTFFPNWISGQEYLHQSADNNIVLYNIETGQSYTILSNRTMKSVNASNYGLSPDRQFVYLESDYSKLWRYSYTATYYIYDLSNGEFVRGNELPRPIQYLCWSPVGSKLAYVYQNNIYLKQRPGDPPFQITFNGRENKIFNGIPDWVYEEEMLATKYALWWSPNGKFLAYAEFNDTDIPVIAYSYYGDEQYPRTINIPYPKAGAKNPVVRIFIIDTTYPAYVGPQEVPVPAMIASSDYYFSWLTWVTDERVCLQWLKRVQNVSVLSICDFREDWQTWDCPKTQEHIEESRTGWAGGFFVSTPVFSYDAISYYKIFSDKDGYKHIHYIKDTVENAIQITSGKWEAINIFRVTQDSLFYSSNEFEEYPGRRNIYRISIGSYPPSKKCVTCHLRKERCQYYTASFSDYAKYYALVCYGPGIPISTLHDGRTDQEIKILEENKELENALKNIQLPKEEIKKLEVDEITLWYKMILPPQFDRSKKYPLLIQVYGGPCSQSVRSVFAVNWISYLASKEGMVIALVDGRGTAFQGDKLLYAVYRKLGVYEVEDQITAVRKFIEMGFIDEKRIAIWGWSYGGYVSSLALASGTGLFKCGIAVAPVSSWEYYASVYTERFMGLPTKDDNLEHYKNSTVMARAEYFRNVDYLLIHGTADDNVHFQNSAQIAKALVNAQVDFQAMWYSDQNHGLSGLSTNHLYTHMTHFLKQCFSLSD

For data set [3], the target named is hFAP (M39-A757) (Homo sapiens (Human), UniProt Q12884). The experiment in a line: hFAP binding assay (surface plasmon resonance). The settings on record: SPR, 20° C.; for hFAP Binding assay k(off) / hFAP Binding assay k(on): single cycle kinetics; for Kd: n = 1 or geometric mean n = 2-4.
Sequence of hFAP (M39-A757) (Q12884 39-757): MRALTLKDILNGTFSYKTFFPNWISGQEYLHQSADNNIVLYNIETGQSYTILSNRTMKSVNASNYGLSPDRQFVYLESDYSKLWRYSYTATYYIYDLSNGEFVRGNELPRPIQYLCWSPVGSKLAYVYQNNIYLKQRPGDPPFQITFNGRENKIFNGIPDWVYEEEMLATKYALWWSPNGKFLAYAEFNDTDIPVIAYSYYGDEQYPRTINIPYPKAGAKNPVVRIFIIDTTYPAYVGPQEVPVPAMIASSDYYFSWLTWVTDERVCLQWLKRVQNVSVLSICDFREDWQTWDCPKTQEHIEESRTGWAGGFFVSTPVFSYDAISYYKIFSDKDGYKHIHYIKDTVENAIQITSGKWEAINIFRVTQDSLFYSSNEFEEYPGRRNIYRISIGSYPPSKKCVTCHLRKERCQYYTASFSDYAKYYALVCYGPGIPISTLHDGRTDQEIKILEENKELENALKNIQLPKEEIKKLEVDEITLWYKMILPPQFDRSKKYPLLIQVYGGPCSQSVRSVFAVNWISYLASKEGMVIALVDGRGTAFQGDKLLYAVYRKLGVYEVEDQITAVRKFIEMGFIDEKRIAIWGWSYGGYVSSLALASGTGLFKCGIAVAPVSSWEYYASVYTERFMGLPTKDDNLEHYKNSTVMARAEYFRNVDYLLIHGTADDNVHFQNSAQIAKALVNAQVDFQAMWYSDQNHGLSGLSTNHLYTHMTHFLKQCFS
Data set [4] deals with Prolyl endopeptidase, Prolyl Oligopeptidase (hPREP) (Homo sapiens (Human), UniProt P48147). The experiment in a line: hPrep inhibition assay. It is filed as biochemical. Particulars: hPREP 0.6 nM, Z-Gly-Pro-amino-methylcoumarin 50 μM; read-out: PREP IC50. In outline: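 Fluorogenic read-out (340 nm excitation, 460 nm emission) after 20 min at rt, using 50 μM final Z-Gly-Pro-aminomethylcoumarin and 0.6 nM final enzyme, following 15 min compound preincubation. Buffer pH 7.5 with glutathione and Triton X-100. IC50 via one-site model on % inhibition vs log concentration.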
Sequence of Prolyl endopeptidase, Prolyl Oligopeptidase (hPREP) (P48147 whole entry): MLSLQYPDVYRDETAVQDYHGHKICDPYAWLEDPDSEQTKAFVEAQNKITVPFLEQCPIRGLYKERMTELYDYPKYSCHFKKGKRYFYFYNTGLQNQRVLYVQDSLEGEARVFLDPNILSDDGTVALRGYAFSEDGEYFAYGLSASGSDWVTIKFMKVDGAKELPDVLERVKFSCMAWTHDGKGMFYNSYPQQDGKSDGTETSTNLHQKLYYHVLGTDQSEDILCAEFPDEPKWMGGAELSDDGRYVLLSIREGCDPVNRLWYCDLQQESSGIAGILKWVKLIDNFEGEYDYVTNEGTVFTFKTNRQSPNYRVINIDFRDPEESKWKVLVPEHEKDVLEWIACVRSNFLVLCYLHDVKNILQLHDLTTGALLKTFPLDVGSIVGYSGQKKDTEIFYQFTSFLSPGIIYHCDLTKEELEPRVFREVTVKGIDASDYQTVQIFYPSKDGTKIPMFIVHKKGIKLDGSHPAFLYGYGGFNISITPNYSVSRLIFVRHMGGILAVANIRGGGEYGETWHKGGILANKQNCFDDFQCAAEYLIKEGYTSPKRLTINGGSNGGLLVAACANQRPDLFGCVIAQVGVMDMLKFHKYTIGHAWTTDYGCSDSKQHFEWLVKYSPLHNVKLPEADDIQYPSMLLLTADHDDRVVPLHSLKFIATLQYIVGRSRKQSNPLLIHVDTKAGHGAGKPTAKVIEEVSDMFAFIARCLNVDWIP

Data set [5] in a line: Kinetic solubility. Particulars: kinetic from dmso stock, Solubility, kinetic solubility; n = 1 or average of n = 2-3.
Method: Kinetic solubility was measured as described in Comput Aided Mol Des 2015, 29, 795.
A short description of data set [6]: Metabolic stability in rat hepatocytes (rHep). Particulars: n = 1 or geometric mean of n = 2-3.
Data set [7] in a line: Metabolic stability in human liver microsomes (HLM). Particulars: human, HLM CLint, n = 1 or average of n = 2-3. (In general: Liver microsomes are a subcellular fraction often used to study metabolism.)
Method: Metabolic stability in HLM was measured as described in J Comput Aided Mol Des 2015, 29, 795.

≈ marks a conversion by molar mass, not a printed value. Bounds are passed on as bounds.

Sequence of FAP (Q12884 38-760): as the sequence (Q12884 38-760) above

Broadly, the IC50 is the concentration at which inhibition is half-maximal. A word on the Kd: it is the free concentration of one partner at which half of the binding sites on the other are occupied at equilibrium, for simple one-to-one binding. High values mean weaker binding, low ones tighter binding. What is called solubility is how much of the substance goes into solution per volume. The low end stands for a poorly soluble substance, the high end for a readily soluble substance. The term microsomal CLint denotes the capacity of the preparation to metabolise the compound, expressed as a volume cleared per time. Low values mean greater metabolic stability, high ones faster metabolism. In turn, `N#C[C@@H]1CSCN1C(=O)CNC(=O)c1ccnc2ccc(N3CCOCC3)c(Cl)c12` [Example 101, (R)-5-Chloro-N-(2-(4-cyanothiazolidin-3-yl)-2-oxoethyl)-6-morpholino-quinoline-4-carboxamide] showed an IC50 in data set [1] of 0.38 nM. For the same molecule, the IC50 in data set [2] is 0.35 nM. In data set [3], the “hFAP Binding assay k(off)” value was determined as 0.000025 s⁻¹, the “hFAP Binding assay k(on)” value turned out to be 740000 M⁻¹ s⁻¹ and binding was characterised by a dissociation constant (Kd) of 0.034 nM. For the same molecule, in data set [4], the 50% inhibitory concentration (IC50) worked out at 380 nM. The solubility in data set [5] was > 1000 µM. For the same molecule, the “rHep CLint” value in data set [6] worked out at 2.3 μL/min/1E6. In addition, the intrinsic metabolic clearance (microsomal CLint) in data set [7] was determined as 8.6 µL/min/mg.

As for `N#C[C@@H]1CSCN1C(=O)CNC(=O)c1ccnc2ccc(-c3ccc(F)cn3)cc12` [Example 125, (R)—N-(2-(4-Cyanothiazolidin-3-yl)-2-oxoethyl)-6-(5-fluoropyridin-2-yl)quinoline-4-carboxamide], the IC50 in data set [1] stood at 0.21 nM. The 50% inhibitory concentration (IC50) in data set [2] was 0.046 nM. In data set [3], the “hFAP Binding assay k(off)” value turned out to be 0.00014 s⁻¹, the “hFAP Binding assay k(on)” value was 3000000 M⁻¹ s⁻¹ and the Kd turned out to be 0.048 nM. Moreover, the concentration for half-maximal inhibition (IC50) in data set [4] is 120 nM. Further, in data set [5], the solubility worked out at 38 µM (≈ 16 µg/mL). Further, the “rHep CLint” value in data set [6] stood at 7.4 μL/min/1E6. Moreover, the microsomal CLint in data set [7] came out at 14 µL/min/mg.

With `C[C@H]1COCCCN1c1ccc2nccc(C(=O)NCC(=O)N3CSC[C@H]3C#N)c2c1` [Example 63, N-(2-((R)-4-Cyanothiazolidin-3-yl)-2-oxoethyl)-6-((S)-3-methyl-1,4-oxazepan-4-yl)quinoline-4-carboxamide], the values for the IC50 in data set [1], in data set [2] and in data set [4] were 0.33 nM, 0.19 nM and 400 nM, respectively. Besides, the “hFAP Binding assay k(off)” value in data set [3] was found to be 0.000059 s⁻¹. Besides, the “hFAP Binding assay k(on)” value in data set [3] worked out at 4100000 M⁻¹ s⁻¹. This molecule also displayed a dissociation constant (Kd) in data set [3] of 0.03 nM. The molecule further gave a solubility in data set [5] of 690 µM (≈ 303 µg/mL). Also, the “rHep CLint” value in data set [6] stood at 30 μL/min/1E6. In data set [7], this molecule displayed an intrinsic clearance (microsomal CLint) of 180 µL/min/mg.

Regarding `CC1CN(c2ccc3nccc(C(=O)NCC(=O)N4CSC[C@H]4C#N)c3c2)C1` [Example 25, (R)—N-(2-(4-Cyanothiazolidin-3-yl)-2-oxoethyl)-6-(3-methylazetidin-1-yl)-quinoline-4-carboxamide], 0.41 nM corresponded to half-maximal inhibition in data set [1] (IC50). Further, inhibition in data set [2] was half-maximal at 0.3 nM (IC50). Further, in data set [3], the “hFAP Binding assay k(off)” value turned out to be 0.00011 s⁻¹, the “hFAP Binding assay k(on)” value is 1400000 M⁻¹ s⁻¹ and the Kd amounted to 0.076 nM. The IC50 in data set [4] worked out at 370 nM. The amount in solution in data set [5] (solubility) came to 130 µM (≈ 51.4 µg/mL). The “rHep CLint” value in data set [6] is recorded as 14 μL/min/1E6. In data set [7], the intrinsic metabolic clearance (microsomal CLint) was found to be 23 µL/min/mg.

Turning to `N#C[C@@H]1CSCN1C(=O)CNC(=O)c1ccnc2ccc(N3CC(c4ccc(F)cc4)C3)cc12` [Example 185, (R)—N-(2-(4-Cyanothiazolidin-3-yl)-2-oxoethyl)-6-(3-(4-fluorophenyl)-azetidin-1-yl)quinoline-4-carboxamide], the IC50 stood at 0.23 nM in data set [1], 0.12 nM in data set [2] and 130 nM in data set [4]. Binding in data set [3] was put at a Kd of 0.043 nM. The molecule also displayed a solubility in data set [5] of 7 µM (≈ 3.33 µg/mL). For the same molecule, in data set [6], the “rHep CLint” value came out at 15 μL/min/1E6. In data set [7], this molecule yielded a microsomal CLint of 58 µL/min/mg.

In data set [1], `N#C[C@@H]1CSCN1C(=O)CNC(=O)c1ccnc2ccc(N3CCCC[C@H]3CF)cc12` [Example 45, N-(2-((R)-4-Cyanothiazolidin-3-yl)-2-oxoethyl)-6-((S)-2-(fluoromethyl)-piperidin-1-yl)quinoline-4-carboxamide] had an IC50 of 0.2 nM. Moreover, the IC50 in data set [2] was 0.14 nM. Also, in data set [3], the “hFAP Binding assay k(off)” value is 0.00018 s⁻¹, the “hFAP Binding assay k(on)” value turned out to be 5400000 M⁻¹ s⁻¹ and binding was characterised by a dissociation constant (Kd) of 0.048 nM. For the same molecule, the IC50 in data set [4] stood at 190 nM. Further, the solubility in data set [5] is 340 µM (≈ 150 µg/mL). Further, in data set [6], the “rHep CLint” value came out at 160 μL/min/1E6. Further, in data set [7], the microsomal CLint amounted to 260 µL/min/mg.
